ChEMBL document CHEMBL1201861, “Genomics of Drug Sensitity in Cancer screening data, Wellcome Trust Sanger Institute”

Legend:
Test in all cases: cells
ES5 = assay type: functional, cell-based, Homo sapiens;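 also: growth inhibition of human ES5 cells, read out by a cell viability assay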
Description: SANGER: Inhibition of human ES5 cell growth in a cell viability assay.

BB30-HNC = assay type: functional, cell-based, Homo sapiens;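 also: growth inhibition of the cultured cell line, read out by a cell viability assay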
Description: SANGER: Inhibition of human BB30-HNC cell growth in a cell viability assay.

NCI-H82 = assay type: functional, cell-based, Homo sapiens;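 also: growth inhibition of NCI-H82 cells, measured with a cell viability readout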
Description: SANGER: Inhibition of human NCI-H82 cell growth in a cell viability assay.

DMS-114 = assay type: functional, cell-based, Homo sapiens
LB831-BLC = assay type: functional, cell-based, Homo sapiens;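 also: growth inhibition of LB831-BLC cells, read out with a cell viability assay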
Description: SANGER: Inhibition of human LB831-BLC cell growth in a cell viability assay.

KNS-42 = assay type: functional, cell-based, Homo sapiens;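 also: growth inhibition of KNS-42 cells, read out with a cell viability assay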
Description: SANGER: Inhibition of human KNS-42 cell growth in a cell viability assay.

MOLT-16 = assay type: functional, cell-based, Homo sapiens;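 also: growth inhibition of human MOLT-16 cells, read out with a cell viability assay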
Description: SANGER: Inhibition of human MOLT-16 cell growth in a cell viability assay.

NCI-H1648 = assay type: functional, cell-based, Homo sapiens;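 also: cell viability assay measuring inhibition of NCI-H1648 cell growth, from the Sanger screening data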
Description: SANGER: Inhibition of human NCI-H1648 cell growth in a cell viability assay.

MSTO-211H = assay type: functional, cell-based, Homo sapiens
Description: SANGER: Inhibition of human MSTO-211H cell growth in a cell viability assay.

KARPAS-299 = assay type: functional, cell-based, Homo sapiens
Description: SANGER: Inhibition of human KARPAS-299 cell growth in a cell viability assay.

DJM-1 = assay type: functional, cell-based, Homo sapiens;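 also: growth inhibition of human DJM-1 cells, read out by a cell viability assay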
Description: SANGER: Inhibition of human DJM-1 cell growth in a cell viability assay.

ATN-1 = assay type: functional, cell-based, Homo sapiens;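 also: growth inhibition of human ATN-1 cells, read out with a cell viability assay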
Description: SANGER: Inhibition of human ATN-1 cell growth in a cell viability assay.

HuTu80 = assay type: functional, cell-based, Homo sapiens, HUTU-80;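 also: growth inhibition of HuTu80 human cells, determined with a cell viability readout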
Description: SANGER: Inhibition of human HUTU-80 cell growth in a cell viability assay.

OMC-1 = assay type: functional, cell-based, Homo sapiens;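 also: growth inhibition of the OMC-1 cell line, measured by a cell viability assay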
Description: SANGER: Inhibition of human OMC-1 cell growth in a cell viability assay.

KE-37 = assay type: functional, cell-based, Homo sapiens;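 also: growth inhibition of KE-37 cells, read out with a cell viability assay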
Description: SANGER: Inhibition of human KE-37 cell growth in a cell viability assay.

K5 = assay type: functional, cell-based, Homo sapiens
Description: SANGER: Inhibition of human K5 cell growth in a cell viability assay.

Lu-65 = assay type: functional, cell-based, Homo sapiens;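 also: growth inhibition of Lu-65 cancer cells, read out by a cell viability assay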
Description: SANGER: Inhibition of human LU-65 cell growth in a cell viability assay.

LB771-HNC = assay type: functional, cell-based, Homo sapiens;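 also: growth inhibition of LB771-HNC human cells, read out with a cell viability assay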
Description: SANGER: Inhibition of human LB771-HNC cell growth in a cell viability assay.

ALL-PO = assay type: functional, cell-based, Homo sapiens;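 also: growth inhibition of ALL-PO cells, read out by a cell viability assay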
Description: SANGER: Inhibition of human ALL-PO cell growth in a cell viability assay.

Ramos-2G6-4C10 = assay type: functional, cell-based, Homo sapiens;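 also: growth inhibition of the cell line, measured by a cell viability read-out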
Description: SANGER: Inhibition of human Ramos-2G6-4C10 cell growth in a cell viability assay.

LU-139 = assay type: functional, cell-based, Homo sapiens
Description: SANGER: Inhibition of human LU-139 cell growth in a cell viability assay.

NB10 = assay type: functional, cell-based, Homo sapiens;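 also: growth inhibition of NB10 cells, read out by a cell viability assay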
Description: SANGER: Inhibition of human NB10 cell growth in a cell viability assay.

OVCAR-4 = assay type: functional, cell-based, Homo sapiens;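 also: growth inhibition of human OVCAR-4 cells, measured with a cell viability assay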
Description: SANGER: Inhibition of human OVCAR-4 cell growth in a cell viability assay.

LB2518-MEL = assay type: functional, cell-based, Homo sapiens;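 also: growth inhibition of human LB2518-MEL cells, measured with a cell viability assay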
Description: SANGER: Inhibition of human LB2518-MEL cell growth in a cell viability assay.

HCC1187 = assay type: functional, cell-based, Homo sapiens;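 also: growth inhibition of HCC1187 cells, read out with a cell viability assay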
Description: SANGER: Inhibition of human HCC1187 cell growth in a cell viability assay.

MHH-NB-11 = assay type: functional, cell-based, Homo sapiens;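 also: growth inhibition of human MHH-NB-11 cells, read out by a cell viability assay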
Description: SANGER: Inhibition of human MHH-NB-11 cell growth in a cell viability assay.

COLO-824 = assay type: functional, cell-based, Homo sapiens
Description: SANGER: Inhibition of human COLO-824 cell growth in a cell viability assay.

EW-18 = assay type: functional, cell-based, Homo sapiens;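 also: growth inhibition of EW-18 cells, read out by a cell viability assay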
Description: SANGER: Inhibition of human EW-18 cell growth in a cell viability assay.

TE-11 = assay type: functional, cell-based, Homo sapiens;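 also: growth inhibition of human TE-11 cells, read out by a cell viability assay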
Description: SANGER: Inhibition of human TE-11 cell growth in a cell viability assay.

SJSA-1 = assay type: functional, cell-based, Homo sapiens;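 also: growth inhibition of human SJSA-1 cells, read out through a cell viability measurement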
Description: SANGER: Inhibition of human SJSA-1 cell growth in a cell viability assay.

RS4-11 = assay type: functional, cell-based, Homo sapiens;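 also: growth inhibition of RS4-11 cells, read out by a cell viability assay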
Description: SANGER: Inhibition of human RS4-11 cell growth in a cell viability assay.

D-502MG = assay type: functional, cell-based, Homo sapiens
Description: SANGER: Inhibition of human D-502MG cell growth in a cell viability assay.

NCI-H1650 = assay type: functional, cell-based, Homo sapiens;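 also: growth inhibition of human NCI-H1650 cells measured by a cell viability assay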
Description: SANGER: Inhibition of human NCI-H1650 cell growth in a cell viability assay.

LOX IMVI = assay type: functional, cell-based, Homo sapiens
Description: SANGER: Inhibition of human LOXIMVI cell growth in a cell viability assay.

HC-1 = assay type: functional, cell-based, Homo sapiens;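 also: growth inhibition of HC-1 cells measured by a cell viability assay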
Description: SANGER: Inhibition of human HC-1 cell growth in a cell viability assay.

GI-1 = assay type: functional, cell-based, Homo sapiens;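 also: growth inhibition of human GI-1 cells, measured with a cell viability readout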
Description: SANGER: Inhibition of human GI-1 cell growth in a cell viability assay.

TGBC24TKB = assay type: functional, cell-based, Homo sapiens;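 also: growth inhibition of human TGBC24TKB cells, read out with a cell viability assay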
Description: SANGER: Inhibition of human TGBC24TKB cell growth in a cell viability assay.

LS-1034 = assay type: functional, cell-based, Homo sapiens
Description: SANGER: Inhibition of human LS-1034 cell growth in a cell viability assay.

AM-38 = assay type: functional, cell-based, Homo sapiens;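 also: growth inhibition of AM-38 cells of human origin, read out by a cell viability assay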
Description: SANGER: Inhibition of human AM-38 cell growth in a cell viability assay.

SCH = assay type: functional, cell-based, Homo sapiens;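 also: growth inhibition of human SCH cells, read out in a cell viability assay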
Description: SANGER: Inhibition of human SCH cell growth in a cell viability assay.

KM-H2 = assay type: functional, cell-based, Homo sapiens;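 also: growth inhibition of KM-H2 cells, read out by a cell viability assay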
Description: SANGER: Inhibition of human KM-H2 cell growth in a cell viability assay.

SNU-5 = assay type: functional, cell-based, Homo sapiens;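 also: cell viability readout used to measure growth inhibition in human NCI-SNU-5 cells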
Description: SANGER: Inhibition of human NCI-SNU-5 cell growth in a cell viability assay.

COR-L88 = assay type: functional, cell-based, Homo sapiens;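 also: growth inhibition of COR-L88 cells, read out with a cell viability assay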
Description: SANGER: Inhibition of human COR-L88 cell growth in a cell viability assay.

HH = assay type: functional, cell-based, Homo sapiens
Description: SANGER: Inhibition of human HH cell growth in a cell viability assay.

NCI-H226 = assay type: functional, cell-based, Homo sapiens;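 also: cell viability read-out used to gauge growth inhibition of the cells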
Description: SANGER: Inhibition of human NCI-H226 cell growth in a cell viability assay.

KALS-1 = assay type: functional, cell-based, Homo sapiens;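 also: growth inhibition of KALS-1 cells, determined with a cell viability assay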
Description: SANGER: Inhibition of human KALS-1 cell growth in a cell viability assay.

NEC8 = assay type: functional, cell-based, Homo sapiens;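 also: growth inhibition of human NEC8 cells, read out by a cell viability assay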
Description: SANGER: Inhibition of human NEC8 cell growth in a cell viability assay.

SNB-75 = assay type: functional, cell-based, Homo sapiens;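 also: cell viability assay measuring growth inhibition of human SNB-75 cells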
Description: SANGER: Inhibition of human SNB75 cell growth in a cell viability assay.

CO[C@H]1C[C@@H]2CC[C@@H](C)[C@@](O)(O2)C(=O)C(=O)N2CCCC[C@H]2C(=O)O[C@H]([C@H](C)C[C@@H]2CC[C@@H](OC(=O)C(C)(CO)CO)[C@H](OC)C2)CC(=O)[C@H](C)/C=C(\C)[C@@H](O)[C@@H](OC)C(=O)[C@H](C)C[C@H](C)/C=C/C=C/C=C/1C [TEMSIROLIMUS]
IC50 (ES5; Homo sapiens, ES5): 0.0614 µM
IC50 (BB30-HNC; Homo sapiens, BB30-HNC): > 0.2 µM
IC50 (NCI-H82; Homo sapiens, NCI-H82): 0.0288 µM
IC50 (DMS-114; Homo sapiens, DMS-114): 0.119 µM
IC50 (LB831-BLC; Homo sapiens, LB831-BLC): > 0.2 µM
IC50 (KNS-42; Homo sapiens, KNS-42): > 0.2 µM
IC50 (MOLT-16; Homo sapiens, MOLT-16): 0.0128 µM
IC50 (NCI-H1648; Homo sapiens, NCI-H1648): 0.182 µM
IC50 (MSTO-211H; Homo sapiens, MSTO-211H): 0.0601 µM
IC50 (KARPAS-299; Homo sapiens, KARPAS-299): > 0.2 µM
IC50 (DJM-1; Homo sapiens, DJM-1): > 0.2 µM
IC50 (ATN-1; Homo sapiens, ATN-1): > 0.2 µM
IC50 (HuTu80; Homo sapiens, HuTu80): > 0.2 µM
IC50 (OMC-1; Homo sapiens, OMC-1): > 0.2 µM
IC50 (KE-37; Homo sapiens, KE-37): 0.0165 µM
IC50 (K5; Homo sapiens, K5): 0.00133 µM
IC50 (Lu-65; Homo sapiens, Lu-65): > 0.2 µM
IC50 (LB771-HNC; Homo sapiens, LB771-HNC): > 0.2 µM
IC50 (ALL-PO; Homo sapiens, ALL-PO): > 0.2 µM
IC50 (Ramos-2G6-4C10; Homo sapiens, Ramos-2G6-4C10): 0.000342 µM
IC50 (LU-139; Homo sapiens, LU-139): 0.0533 µM
IC50 (NB10; Homo sapiens, NB10): > 0.2 µM
IC50 (OVCAR-4; Homo sapiens, OVCAR-4): > 0.2 µM
IC50 (LB2518-MEL; Homo sapiens, LB2518-MEL): > 0.2 µM
IC50 (HCC1187; Homo sapiens, HCC1187): > 0.2 µM
IC50 (MHH-NB-11; Homo sapiens, MHH-NB-11): > 0.2 µM
IC50 (COLO-824; Homo sapiens, COLO-824): > 0.2 µM
IC50 (EW-18; Homo sapiens, EW-18): > 0.2 µM
IC50 (TE-11; Homo sapiens, TE-11): > 0.2 µM
IC50 (SJSA-1; Homo sapiens, SJSA-1): 0.143 µM
IC50 (RS4-11; Homo sapiens, RS4-11): 0.00845 µM
IC50 (D-502MG; Homo sapiens, D-502MG): > 0.2 µM
IC50 (NCI-H1650; Homo sapiens, NCI-H1650): > 0.2 µM
IC50 (LOX IMVI; Homo sapiens, LOX IMVI): 0.12 µM
IC50 (HC-1; Homo sapiens, HC-1): 0.101 µM
IC50 (GI-1; Homo sapiens, GI-1): 0.107 µM
IC50 (TGBC24TKB; Homo sapiens, TGBC24TKB): 0.141 µM
IC50 (LS-1034; Homo sapiens, LS-1034): > 0.2 µM
IC50 (AM-38; Homo sapiens, AM-38): > 0.2 µM
IC50 (SCH; Homo sapiens, SCH): > 0.2 µM
IC50 (KM-H2; Homo sapiens, KM-H2): > 0.2 µM
IC50 (SNU-5; Homo sapiens, SNU-5): > 0.2 µM
IC50 (COR-L88; Homo sapiens, COR-L88): > 0.2 µM
IC50 (HH; Homo sapiens, HH): 0.000664 µM
IC50 (NCI-H226; Homo sapiens, NCI-H226): > 0.2 µM
IC50 (KALS-1; Homo sapiens, KALS-1): 0.149 µM
IC50 (NEC8; Homo sapiens, NEC8): > 0.2 µM
IC50 (SNB-75; Homo sapiens, SNB-75): > 0.2 µM

CISPLATIN
IC50 (ES5; es5): 3.32 µM
IC50 (BB30-HNC; bb30-hnc): 24.5 µM
IC50 (NCI-H82; nci-h82): 74.9 µM
IC50 (DMS-114; dms-114): 19.6 µM
IC50 (LB831-BLC; lb831-blc): 225 µM
IC50 (KNS-42; kns-42): 20.5 µM
IC50 (MOLT-16; molt-16): 8.36 µM
IC50 (NCI-H1648; nci-h1648): 69.7 µM
IC50 (MSTO-211H; msto-211h): 57.1 µM
IC50 (KARPAS-299; karpas-299): 172 µM
IC50 (DJM-1; djm-1): 6.36 µM
IC50 (ATN-1; atn-1): 18.6 µM
IC50 (HuTu80; hutu-80): 467 µM
IC50 (OMC-1; omc-1): 12.6 µM
IC50 (KE-37; ke-37): 31.5 µM
IC50 (K5; k5): 3.73 µM
IC50 (Lu-65; lu-65): 559 µM
IC50 (LB771-HNC; lb771-hnc): 89.8 µM
IC50 (ALL-PO; all-po): 31.1 µM
IC50 (Ramos-2G6-4C10; ramos-2g6-4c10): 26.5 µM
IC50 (LU-139; lu-139): 95.6 µM
IC50 (NB10; nb10): 11.5 µM
IC50 (OVCAR-4; ovcar-4): 22.3 µM
IC50 (LB2518-MEL; lb2518-mel): 116 µM
IC50 (HCC1187; hcc1187): 117 µM
IC50 (MHH-NB-11; mhh-nb-11): 4.83 µM
IC50 (COLO-824; colo-824): 114 µM
IC50 (EW-18; ew-18): 35.2 µM
IC50 (TE-11; te-11): 16.4 µM
IC50 (SJSA-1; sjsa-1): 23 µM
IC50 (RS4-11; rs4-11): 5.57 µM
IC50 (D-502MG; d-502mg): 33.1 µM
IC50 (NCI-H1650; nci-h1650): 19 µM
IC50 (LOX IMVI; lox imvi): 13.3 µM
IC50 (HC-1; hc-1): 9.5 µM
IC50 (GI-1; gi-1): 2.06 µM
IC50 (TGBC24TKB; tgbc24tkb): 39.8 µM
IC50 (LS-1034; ls-1034): 22.7 µM
IC50 (AM-38; am-38): 225 µM
IC50 (SCH; sch): 13.2 µM
IC50 (KM-H2; km-h2): 450 µM
IC50 (SNU-5; snu-5): 141 µM
IC50 (COR-L88; cor-l88): 319 µM
IC50 (HH; hh): 22.5 µM
IC50 (NCI-H226; nci-h226): 41.5 µM
IC50 (KALS-1; kals-1): 71.1 µM
IC50 (NEC8; nec8): 2.52 µM
IC50 (SNB-75; snb-75): 48 µM
